We go through 5 compounds from patent US10274490B2, “Magnetic labeling of bacteria” (The General Hospital Corporation, priority 2012, dated 2019).

Data set [1] has as its system E. coli (Gram-negative). The data set is described as follows: Confocal microscopy control experiment. Format: cell-based, Escherichia coli. To be noted: Crystal Violet-TCO stained, decolorized. The method, then: (§1) Bacterial cells in media were first washed with phosphate buffered saline solution (PBS). For μNMR measurements, absorbance measurements, confocal microscopy, and transmission electron microscopy (TEM), the bacteria (10^8 in 100 μl) were stained with 200 μM CV-TCO in 20% ethanol solution containing 8 mg/ml ammonium oxalate for 5 min. at room temperature, and washed with PBS. Then the bacteria were treated with Gram Iodine solution for 1 min. and decolorized with 95% ethanol solution. For μNMR and confocal microscopy, bacteria were incubated with 50 μg/ml MFNP-Tz in PBS for 20 min. at room temperature, and washed twice with PBS. For confocal microscopy, labeled bacteria were mounted on microscopic slides with Vectashield containing propium iodide (Vector Laboratories), and imaged. For TEM, the stained and decolorized bacteria were incubated with 50 μg/ml GNP-Tz in PBS for 1 h, washed with PBS, and dehydrated with graded ethanol series before applying onto a carbon grid (Ted Pella).
The green channel (left) indicates MNFP-Tz, and the red channel (right) indicates propidium iodide. (Scale bar=5 μm).

For data set [2], the system named is S. aureus (Gram-positive). The data set is described as follows: Absorbance at 595 nm / UV-visible spectrometry of stained bacteria. In kind it is cell-based, Staphylococcus aureus. To be noted: E. coli (G−) as comparison. The method, then:
as §1

Data set [3] concerns Gram-positive and Gram-negative bacteria. The data set is described as follows: μNMR detection before and after decolorization. In kind it is cell-based. How it is done:
as §1
The magnetic labeling detection strategy using Crystal Violet-TCO can be applied to detect both Gram-positive and Gram-negative bacteria. A modified protocol was adopted in which staining was performed without the decolorization process, which results in labeling both Gram-positive and Grain-negative bacteria, since the Gram-negative bacteria also retain the Crystal Violet-TCO. […]

Data set [4] can be described thus: Molar extinction coefficient. In kind it is physicochemical. To be noted: 592 nm.
The subject of data set [5] is S. aureus. Put plainly: Confocal microscopy (MFNP-Tz) and TEM (GNP-Tz) of Crystal Violet-TCO stained bacteria. In kind it is cell-based, Staphylococcus aureus. How it is done: as §1
The left, middle, and right panels show images of the red channel, green channel, and a merged image of the red and green channels, respectively (Red: propidium iodide for nuclear staining; Green: MNFP-Tz staining; Scale bar=10 μm).
Gold nanoparticles were used instead of magnetic nanoparticles to obtain higher contrast.

For data set [6], the system named is S. aureus. The data set is described as follows: μNMR sensitivity of the assay, serially diluted bacterial samples. To be noted: Crystal Violet-TCO and MFNP-Tz. In kind it is cell-based, Staphylococcus aureus. How it is done: as §1
To measure the sensitivity of the assay, measurements with serially diluted bacterial samples were performed and established a detection limit of about 4,000 bacteria with the experimental set-up used. […] Limit of detection was ˜4000 CFU.

Data set [7] deals with S. aureus (Gram-positive). The data set is described as follows: Gram staining, bright field microscopy. Format: cell-based, Staphylococcus aureus. The note with it: 1 mM Crystal Violet-TCO 3 min, iodine, 95% ethanol, Safranin counterstain. How it is done:
Bacterial cells were smeared onto microscopic slides, and stained with standard crystal violet (20 mM) or CV-TCO (1 mM) in 20% ethanol solution containing 8 mg/ml ammonium oxalate for 3 min. After washing with deionized water, slides were treated with Gram Iodine (BD Biosciences), decolorized with 95% ethanol solution, and counterstained with Gram safranin (BD Biosciences). Slides were observed using a bright field light microscope.
To test the efficacy of Crystal Violet-TCO as a staining agent for Gram-positive bacteria, three representative samples were prepared: Staphylococcus aureus (S. aureus; Gram-positive), Escherichia coli (E. coli; Gram-negative), and the mixture of both bacterial species. Bacterial smears on glass slides were stained with a solution of Crystal Violet-TCO (1 mM) or Crystal Violet for 3 min., followed by treatment with Gram's iodine solution for one minute, decolorization with 95% ethanol, and counterstaining with red Safranin solution.

Data set [8] relates to Gram-positive species. The data set is described as follows: μNMR cellular relaxivity of bacteria stained with Crystal Violet-TCO and labeled with MFNP-Tz. Format: cell-based. To be noted: panel of bacterial species. How it is done: Bacterial cells in media were first washed with phosphate buffered saline solution (PBS). For μNMR measurements, absorbance measurements, confocal microscopy, and transmission electron microscopy (TEM), the bacteria (10^8 in 100 μl) were stained with 200 μM CV-TCO in 20% ethanol solution containing 8 mg/ml ammonium oxalate for 5 min. at room temperature, and washed with PBS. Then the bacteria were treated with Gram Iodine solution for 1 min. and decolorized with 95% ethanol solution. For μNMR and confocal microscopy, bacteria were incubated with 50 μg/ml MFNP-Tz in PBS for 20 min. at room temperature, and washed twice with PBS. […]
To test whether bacteria labelled with Crystal Violet-TCO could be magnetically labeled via cycloaddition to the TCO group, bacteria stained with Crystal Violet-TCO were incubated with magnetofluorescent nanoparticles modified with tetrazine (MFNP-Tz). […] The T2 relaxation values of samples were measured using a miniaturized μNMR system. For comparative analyses, the absorption (at 595 nm) of the same samples was also measured. Cellular relaxivity (r2) was obtained by normalizing the measured 1/T2 values with bacterial concentration, and the r2 differences (Δr2) between targeted and control samples were calculated. […]

Data set [9] deals with Nocardia Farcinica. The data set is described as follows: Bioorthogonal labeling with Trehalose-TCO and Oregon Green-Tz, cell fluorescence microscopy. In kind it is cell-based. The method, then:
Nocardia Farcinica bacteria (ATCC 3308) at an OD600 of 0.8 in growth medium (0.1 mL) was added 100 μM Trehalose-TCO, Trehalose-fluorescein or DMSO (as a control) in growth media (1% DMSO). Bacteria were incubated at 37° C. with shaking for 16 h. Bacteria were then centrifuged (7 min., 8000 rpm) and washed (2×100 μL PBS solution containing 2% fetal bovine serum (FBS) and 1 mg/mL bovine serum albumin (BSA) PBS-F).
Bacteria treated with Trehalose-TCO were incubated with 50 μg/mL MFNP-Tz MNFP-Tz or 10 μM Oregon Green-Tz for 20 min. in PBS-F. Bacteria were then centrifuged (7 min., 8000 rpm) and washed (2×100 μL PBS-F). Bacteria were then fixed with 10% PFA in PBS (100 μL) for 20 min., centrifuged and resuspended in 10 μL PBS. 3 μL were spread out on a 96 wells plates (Nunc, Cat No 137103 (Roskilde, Denmark, pre-wet with PBS-F). Bacteria were dried out in an incubator 37 C for 30 min. then mounting media containing […] was added to samples. Imaging was done on a DeltaVision microscope (Applied Precision Instruments) at 60×.

In data set [10] the test system is Gram-positive bacteria. The data set is described as follows: Magnetic resonance detection of bacteria labeled with daptomycin-TCO and MFNP-Tz. To be noted: daptomycin-TCO then MFNP-Tz. Format: cell-based. How it is done:
(§2) For two-step labeling using Daptomycin-TCO, the drug conjugates were incubated in buffer solution containing 5 mM 4-(2-hydroxyethyl)-1-piperazineethanesulfonic acid (HEPES), 5 mM CaCl2, 2% FBS, and 1 mg/ml BSA at room temperature for 30 min. After washing twice with PBS-F, bacterial cells were incubated with 50 μg/ml MFNP-Tz in PBS-F for 20 min. at room temperature.
All μNMR measurements were performed using the portable NMR system recently developed for point-of-care operations as described by Issadore, et al. Lab Chip 2011, 11, 2282-87. The polarizing magnetic field was ˜0.5 T. Transverse relaxation times were measured on 1-2 μL sample volumes, using Carry-Purcell-Meiboom-Gill pulse sequences with the following parameters: echo time, 3 ms; repetition time, 4 s; number of 180° pulses per scan, 900; number of scans, 7.
(§3) Daptomycin-TCO was used to magnetically label bacteria using methods similar to those described in Example 1.

Data set [11] concerns Gram-positive bacteria. The data set is described as follows: Fluorescence spectrometry of bacteria labeled with daptomycin-TCO and MFNP-Tz. Format: cell-based. To be noted: daptomycin-TCO at various concentrations, then MFNP-Tz. How it is done: as §2
For fluorescence spectrometry, μNMR measurements, and flow cytometry, the cells were fixed in 10% paraformaldehyde (PFA) for 30 min., and then exchanged into PBS solution. Fluorescence measurements were taken using the Safire2 microplate reader (TECAN, Mannedorf, Switzerland). Increased relative fluorescence intensity (% RFU) values were calculated as 100×(Itarget−Inon)/Inon, where Itarget and Inon are intensity values of targeted and non-targeted bacteria, respectively. Flow cytometry was performed using LSRII (BD Biosciences). All labeling experiments and measurements were performed at least 3 times to confirm the reproducibility and robustness of the method.
as §3

Data set [12] deals with Gram-positive bacteria. Put plainly: Competitive inhibition of vancomycin-TCO labeling by unmodified vancomycin. The note with it: 1-200 μM unmodified vancomycin added to 20 μM vancomycin-TCO; fluorescence and magnetic resonance; all Gram-positive bacteria; read-out: inhibition binding constant (Ki). The method, then: For two-step labeling, the washed cells were incubated with 1-20 μM vancomycin TCO in PBS-F at room temperature for 30 min. For competition studies, 1-200 μM unmodified vancomycin was added to 20 μM vancomycin-TCO.
To further characterize the binding properties of vancomycin-TCO, competitive inhibition studies were performed in which unmodified vancomycin was introduced together with vancomycin-TCO, before reacting with MFNP-Tz.
FIGS. 8A and 8B show the results of competition studies of vancomycin-TCO using both fluorescence (FIG. 8A) and magnetic resonance (FIG. 8B) measurements. […] The inhibition binding constant (Ki) was about 6 μM for all Gram-positive bacteria, a value which was similar to that of vancomycin-TCO.

A word on the Ki: it is the equilibrium dissociation constant of an inhibitor or competing ligand from its target.

`CC[N+](CCNC(=O)OC1CC/C=C/CCC1)=C1C=CC(=C(c2ccc(N(C)C)cc2)c2ccc(N(C)C)cc2)C=C1` (centres unmarked) [Crystal Violet-TCO, (E)-N-(4-(bis(4-(dimethylamino)phenyl)methylene)cyclohexa-2,5-dien-1-ylidene)-2-(((cyclooct-4-en-1-yloxy)carbonyl)amino)-N-ethylethanaminium chloride]: the “confocal microscopy MFNP-Tz signal” value in data set [1] is listed as “absence of MFNP-Tz signal”. Further, the “UV absorbance of stained bacteria” value in data set [2] is given as “intense absorption at 595 nm”. For the same compound, the μNMR detection result in data set [3] (after decolorization) was “only Gram-positive species retained their signals”; in data set [3] (before decolorization), “both Gram-positive and negative bacteria could be magnetically labeled and detected”. In [4], the “molar extinction coefficient ε592” value stood at 133013 L/mol/cm. The “transmission electron microscopy observation” value in [5] (CV-TCO then GNP-Tz) is reported as “Gold nanoparticles were found distributed throughout the bacterial surface”. Also, in [5] (Crystal Violet-TCO then MFNP-Tz), the confocal microscopy observation entry was “uniform and high fluorescence signals in the bacterial cell wall”. In data set [6], the detection limit entry is “about 4,000 bacteria”. In data set [6] (ΔR2), the Limit of detection is around 4000 CFU. The “colour after Gram staining and decolorization” value in [7] is “remained purple”. Also, the “cellular relaxivity of Gram-positive species” value in data set [8] is listed as “significantly higher cellular relaxivity values when compared to Gram-negative bacteria”.
With `C[C@]1(O[C@H]2O[C@H](CO)C(O)C(O)C2NC(=O)OC2CC/C=C/CCC2)OC(CO)[C@@H](O)C(O)C1O` (stereo partly drawn) [Trehalose-TCO, 1-deoxy-α-D-gluco-hept-2-ulopyranosyl-(2→1)-2-deoxy-2-((E)-cyclooct-4-en-1-yl carbamate)-α-D-glucopyranoside], in [9] (0-16 h, subsequent labeling with Oregon Green-Tz), the kinetics of incorporation result is on record as “gradual increase in the extent of labeling”. For the same compound, the cell fluorescence entry in data set [9] (100 μM Trehalose-TCO 16 h, then 10 μM Oregon Green-Tz) was “Bright green fluorescence of the cells is observed”.
In the case of `CCCCCCCCCC(=O)N[C@@H](Cc1c[nH]c2ccccc12)C(=O)N[C@@H](CC(N)=O)C(=O)N[C@@H](CC(=O)O)C(=O)N[C@@H]1C(=O)NCC(=O)N[C@@H](CCCNC(=O)OC2CC/C=C/CCC2)C(=O)N[C@@H](CC(=O)O)C(=O)N[C@H](C)C(=O)N[C@@H](CC(=O)O)C(=O)NCC(=O)N[C@H](CO)C(=O)N[C@@H]([C@@H](C)CC(=O)O)C(=O)N[C@@H](CC(=O)c2ccccc2N)C(=O)O[C@@H]1C` (some centres unmarked) [daptomycin-TCO], in data set [10], the cellular relaxivity was found to be 1.32 s^−1[CFU/μL]^−1. Also, the “increased relative fluorescence intensities” value in [11] is listed as “up to 220%”.
Regarding `CN[C@H](CC(C)C)C(=O)N[C@H]1C(=O)N[C@@H](CC(N)=O)C(=O)N[C@H]2C(=O)N[C@H]3C(=O)N[C@H](C(=O)N[C@H](C(=O)O)c4cc(O)cc(O)c4-c4cc3ccc4O)[C@H](O)c3ccc(c(Cl)c3)Oc3cc2cc(c3O[C@@H]2O[C@H](CO)[C@@H](O)[C@H](O)[C@H]2O[C@H]2C[C@](C)(N)[C@H](O)[C@H](C)O2)Oc2ccc(cc2Cl)[C@H]1O` [vancomycin], the Ki in [12] was around 6 µM.
In the case of `CN(C)c1ccc(C(=C2C=CC(=[N+](C)C)C=C2)c2ccc(N(C)C)cc2)cc1` [crystal violet, reference compound], the “molar extinction coefficient ε592” value in [4] worked out at 89146 L/mol/cm.
